Reference: patent US9993494B2, “Compositions and methods for treating fibrotic disease” (eFFECTOR Therapeutics, Inc., priority 2014, dated 2018)

Tested on: normal human lung fibroblasts
Assay: Ribosomal profiling: translational efficiency in TGFβ-treated fibroblasts
Assay type: cell-based
Details: TGFβ-treated fibroblasts
In short: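 Cells lysed on ice after a cold PBS wash containing cycloheximide. Ribosome-protected fragments and total mRNA were prepared with the ARTseq kit and sequenced by RNA-Seq. Reads were trimmed, mapped to the human genome and counted uniquely over coding regions per gene, with low-count genes excluded before differential translational-efficiency analysis.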

Cc1cc(C2CCCCC2)n(O)c(=O)c1.NCCO [CPX, ciclopirox oloamine]
renormalizing the translational profile of DNASE1L1 (ENSG00000013563): − (− = <0.9)
renormalizing the translational profile of KITLG (ENSG00000049130): − (− = <0.9)
renormalizing the translational profile of ADAMTS6 (ENSG00000049192): − (− = <0.9)
renormalizing the translational profile of LETMD1 (ENSG00000050426): − (− = <0.9)
renormalizing the translational profile of PLEKHA5 (ENSG00000052126): − (− = <0.9)
renormalizing the translational profile of EIF4B (ENSG00000063046): − (− = <0.9)
renormalizing the translational profile of RPL18 (ENSG00000063177): − (− = <0.9)
renormalizing the translational profile of HIPK2 (ENSG00000064393): − (− = <0.9)
renormalizing the translational profile of ASPM (ENSG00000066279): − (− = <0.9)
renormalizing the translational profile of RASSF1 (ENSG00000068028): − (− = <0.9)
renormalizing the translational profile of PABPC1 (ENSG00000070756): − (− = <0.9)
renormalizing the translational profile of RPL31 (ENSG00000071082): − (− = <0.9)
renormalizing the translational profile of PLD1 (ENSG00000075651): − (− = <0.9)
renormalizing the translational profile of EDN1 (ENSG00000078401): − (− = <0.9)
renormalizing the translational profile of AURKA (ENSG00000087586): − (− = <0.9)
renormalizing the translational profile of EPB41L1 (ENSG00000088367): − (− = <0.9)
renormalizing the translational profile of RPL6 (ENSG00000089009): − (− = <0.9)
renormalizing the translational profile of P2RX7 (ENSG00000089041): ++ (++ = 1.5 to 2.0)
renormalizing the translational profile of KDM2B (ENSG00000089094): − (− = <0.9)
renormalizing the translational profile of RPLP0 (ENSG00000089157): − (− = <0.9)
renormalizing the translational profile of IGBP1 (ENSG00000089289): − (− = <0.9)
renormalizing the translational profile of IRAK3 (ENSG00000090376): − (− = <0.9)
renormalizing the translational profile of PABPC4 (ENSG00000090621): − (− = <0.9)
renormalizing the translational profile of FMO2 (ENSG00000094963): − (− = <0.9)
renormalizing the translational profile of ACOT7 (ENSG00000097021): − (− = <0.9)
renormalizing the translational profile of ATP5D (ENSG00000099624): − (− = <0.9)
renormalizing the translational profile of LGALS1 (ENSG00000100097): − (− = <0.9)
renormalizing the translational profile of EIF3L (ENSG00000100129): − (− = <0.9)
renormalizing the translational profile of RPL3 (ENSG00000100316): − (− = <0.9)
renormalizing the translational profile of CEP192 (ENSG00000101639): − (− = <0.9)
renormalizing the translational profile of AMMECR1 (ENSG00000101935): − (− = <0.9)
renormalizing the translational profile of PLP2 (ENSG00000102007): − (− = <0.9)
renormalizing the translational profile of EIF3E (ENSG00000104408): − (− = <0.9)
renormalizing the translational profile of EEF1D (ENSG00000104529): − (− = <0.9)
renormalizing the translational profile of C19orf53 (ENSG00000104979): − (− = <0.9)
renormalizing the translational profile of GLTSCR2 (ENSG00000105373): + (+ = 0.9 to 1.5)
renormalizing the translational profile of RAB3D (ENSG00000105514): − (− = <0.9)
renormalizing the translational profile of RPL18A (ENSG00000105640): − (− = <0.9)
renormalizing the translational profile of COMP (ENSG00000105664): − (− = <0.9)
renormalizing the translational profile of GLCCI1 (ENSG00000106415): − (− = <0.9)
renormalizing the translational profile of CORO2A (ENSG00000106789): − (− = <0.9)
renormalizing the translational profile of GDF10 (ENSG00000107623): + (+ = 0.9 to 1.5)
renormalizing the translational profile of RPL28 (ENSG00000108107): − (− = <0.9)
renormalizing the translational profile of RPL19 (ENSG00000108298): − (− = <0.9)
renormalizing the translational profile of RASD1 (ENSG00000108551): − (− = <0.9)
renormalizing the translational profile of NAT9 (ENSG00000109065): − (− = <0.9)
renormalizing the translational profile of RPL34 (ENSG00000109475): − (− = <0.9)
renormalizing the translational profile of CRYAB (ENSG00000109846): − (− = <0.9)
renormalizing the translational profile of GAPDH (ENSG00000111640): − (− = <0.9)
renormalizing the translational profile of C12orf57 (ENSG00000111678): − (− = <0.9)
renormalizing the translational profile of HBEGF (ENSG00000113070): − (− = <0.9)
renormalizing the translational profile of RPL24 (ENSG00000114391): − (− = <0.9)
renormalizing the translational profile of EEF1B2 (ENSG00000114942): − (− = <0.9)
renormalizing the translational profile of IFIH1 (ENSG00000115267): − (− = <0.9)
renormalizing the translational profile of DPH5 (ENSG00000117543): − (− = <0.9)
renormalizing the translational profile of PPL (ENSG00000118898): − (− = <0.9)
renormalizing the translational profile of PLEKHG1 (ENSG00000120278): + (+ = 0.9 to 1.5)
renormalizing the translational profile of LIAS (ENSG00000121897): − (− = <0.9)
renormalizing the translational profile of GPSM2 (ENSG00000121957): − (− = <0.9)
renormalizing the translational profile of RPL21 (ENSG00000122026): − (− = <0.9)
renormalizing the translational profile of RPL5 (ENSG00000122406): − (− = <0.9)
renormalizing the translational profile of INHBA (ENSG00000122641): − (− = <0.9)
renormalizing the translational profile of CIT (ENSG00000122966): − (− = <0.9)
renormalizing the translational profile of RPL23 (ENSG00000125691): − (− = <0.9)
renormalizing the translational profile of LAMP5 (ENSG00000125869): + (+ = 0.9 to 1.5)
renormalizing the translational profile of NECAB3 (ENSG00000125967): − (− = <0.9)
renormalizing the translational profile of COX7C (ENSG00000127184): − (− = <0.9)
renormalizing the translational profile of LIF (ENSG00000128342): − (− = <0.9)
renormalizing the translational profile of MTUS1 (ENSG00000129422): − (− = <0.9)
renormalizing the translational profile of ARHGEF6 (ENSG00000129675): − (− = <0.9)
renormalizing the translational profile of RPL36 (ENSG00000130255): − (− = <0.9)
renormalizing the translational profile of GDF15 (ENSG00000130513): − (− = <0.9)
renormalizing the translational profile of ASS1 (ENSG00000130707): − (− = <0.9)
renormalizing the translational profile of EIF2S3 (ENSG00000130741): − (− = <0.9)
renormalizing the translational profile of RPL27 (ENSG00000131469): − (− = <0.9)
renormalizing the translational profile of MATN3 (ENSG00000132031): − (− = <0.9)
renormalizing the translational profile of PPARG (ENSG00000132170): − (− = <0.9)
renormalizing the translational profile of KDM6B (ENSG00000132510): − (− = <0.9)
renormalizing the translational profile of RARRES3 (ENSG00000133321): − (− = <0.9)
renormalizing the translational profile of BIVM (ENSG00000134897): + (+ = 0.9 to 1.5)
renormalizing the translational profile of ATP5G2 (ENSG00000135390): − (− = <0.9)
renormalizing the translational profile of KRT7 (ENSG00000135480): ++ (++ = 1.5 to 2.0)
renormalizing the translational profile of HNRNPA1 (ENSG00000135486): − (− = <0.9)
renormalizing the translational profile of IL6 (ENSG00000136244): − (− = <0.9)
renormalizing the translational profile of RPL35 (ENSG00000136942): − (− = <0.9)
renormalizing the translational profile of NOV (ENSG00000136999): − (− = <0.9)
renormalizing the translational profile of IER3 (ENSG00000137331): − (− = <0.9)
renormalizing the translational profile of DDX60 (ENSG00000137628): − (− = <0.9)
renormalizing the translational profile of RPLP1 (ENSG00000137818): − (− = <0.9)
renormalizing the translational profile of PAQR5 (ENSG00000137819): + (+ = 0.9 to 1.5)
renormalizing the translational profile of AOX1 (ENSG00000138356): − (− = <0.9)
renormalizing the translational profile of FGF5 (ENSG00000138675): − (− = <0.9)
renormalizing the translational profile of PDE5A (ENSG00000138735): − (− = <0.9)
renormalizing the translational profile of GAS2L3 (ENSG00000139354): − (− = <0.9)
renormalizing the translational profile of DIAPH3 (ENSG00000139734): − (− = <0.9)
renormalizing the translational profile of MYO19 (ENSG00000141140): − (− = <0.9)
renormalizing the translational profile of RPL13A (ENSG00000142541): − (− = <0.9)
renormalizing the translational profile of RPL11 (ENSG00000142676): − (− = <0.9)
renormalizing the translational profile of ACTA1 (ENSG00000143632): + (+ = 0.9 to 1.5)
renormalizing the translational profile of PLEKHA6 (ENSG00000143850): + (+ = 0.9 to 1.5)
renormalizing the translational profile of RPL32 (ENSG00000144713): − (− = <0.9)
renormalizing the translational profile of RPL37 (ENSG00000145592): − (− = <0.9)
renormalizing the translational profile of BTF3 (ENSG00000145741): − (− = <0.9)
renormalizing the translational profile of HIGD2A (ENSG00000146066): − (− = <0.9)
renormalizing the translational profile of CREB5 (ENSG00000146592): − (− = <0.9)
renormalizing the translational profile of DENND2A (ENSG00000146966): − (− = <0.9)
renormalizing the translational profile of RPL10 (ENSG00000147403): − (− = <0.9)
renormalizing the translational profile of EIF3H (ENSG00000147677): − (− = <0.9)
renormalizing the translational profile of RPL7A (ENSG00000148303): − (− = <0.9)
renormalizing the translational profile of EIF3M (ENSG00000149100): − (− = <0.9)
renormalizing the translational profile of FAU (ENSG00000149806): − (− = <0.9)
renormalizing the translational profile of CCDC102B (ENSG00000150636): − (− = <0.9)
renormalizing the translational profile of FRMD4A (ENSG00000151474): + (+ = 0.9 to 1.5)
renormalizing the translational profile of HOMER1 (ENSG00000152413): − (− = <0.9)
renormalizing the translational profile of PLEKHH2 (ENSG00000152527): − (− = <0.9)
renormalizing the translational profile of ANKH (ENSG00000154122): − (− = <0.9)
renormalizing the translational profile of ABCA6 (ENSG00000154262): − (− = <0.9)
renormalizing the translational profile of OBSCN (ENSG00000154358): + (+ = 0.9 to 1.5)
renormalizing the translational profile of ADAMTS5 (ENSG00000154736): + (+ = 0.9 to 1.5)
renormalizing the translational profile of OXA1L (ENSG00000155463): − (− = <0.9)
renormalizing the translational profile of C9orf85 (ENSG00000155621): − (− = <0.9)
renormalizing the translational profile of RPL30 (ENSG00000156482): − (− = <0.9)
renormalizing the translational profile of EEF1A1 (ENSG00000156508): − (− = <0.9)
renormalizing the translational profile of NRG1 (ENSG00000157168): − (− = <0.9)
renormalizing the translational profile of ADAMTS4 (ENSG00000158859): − (− = <0.9)
renormalizing the translational profile of RPL8 (ENSG00000161016): − (− = <0.9)
renormalizing the translational profile of RPL26 (ENSG00000161970): − (− = <0.9)
renormalizing the translational profile of RPL29 (ENSG00000162244): − (− = <0.9)
renormalizing the translational profile of CAMK2N1 (ENSG00000162545): − (− = <0.9)
renormalizing the translational profile of IGFBP7 (ENSG00000163453): − (− = <0.9)
renormalizing the translational profile of RPL22L1 (ENSG00000163584): − (− = <0.9)
